Laboratory results from PubChem BioAssay (NCI).
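Values below derive from 48-hour exposures of cells grown in 96-well plates, with endpoints linearly interpolated between the two concentrations bracketing the appropriate inhibition level. TGI: concentration producing complete growth inhibition.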

Legend:
Assay in all cases: NCI tumour cell line growth inhibition, 48 h
[1] = system: MOLT-4 leukemia
[2] = system: M14 melanoma
[3] = system: K-562 leukemia
[4] = system: CAKI-1 renal
[5] = system: OVCAR-8 ovarian
[6] = system: COLO 205 colon
[7] = system: IGROV1 ovarian
[8] = system: SK-MEL-28 melanoma
[9] = system: SF-268 CNS
[10] = system: BT-549 breast
[11] = system: HOP-92 NSCLC
[12] = system: SF-539 CNS
[13] = system: ACHN renal
[14] = system: NCI-H23 lung
[15] = system: CCRF-CEM leukemia
[16] = system: SNB-75 CNS
[17] = system: HOP-62 NSCLC
[18] = system: RPMI-8226 leukemia
[19] = system: NCI-H226 lung
[20] = system: OVCAR-3 ovarian
[21] = system: HCT-15 colon
[22] = system: HL-60(TB) leukemia
[23] = system: MDA-N
[24] = system: SF-295 CNS
[25] = system: SK-MEL-2 melanoma
[26] = system: UACC-257 melanoma
[27] = system: A549 NSCLC
[28] = system: HT29 colon
[29] = system: SK-OV-3 ovarian
[30] = system: A498 renal
[31] = system: NCI-H522 lung
[32] = system: RXF 393 renal
[33] = system: UACC-62 melanoma
[34] = system: HCT-116 colon
[35] = system: OVCAR-5 ovarian
[36] = system: 786-0 renal
[37] = system: DU-145 prostate
[38] = system: MDA-MB-231 breast
[39] = system: OVCAR-4 ovarian
[40] = system: MALME-3M melanoma
[41] = system: SN12C renal
[42] = system: U251 CNS
[43] = system: UO-31 renal
[44] = system: SK-MEL-5 melanoma
[45] = system: MDA-MB-435
[46] = system: NCI/ADR-RES ovarian
[47] = system: PC-3 prostate
[48] = system: TK-10 renal
[49] = system: EKVX NSCLC
[50] = system: HS 578T breast
[51] = system: LOX IMVI melanoma
[52] = system: SNB-19 CNS
[53] = system: MCF7 breast
[54] = system: T-47D breast
[55] = system: HCC-2998 colon
[56] = system: NCI-H460 lung
[57] = system: SW-620 colon
[58] = system: SR leukemia

Q: `C=CCN1CCC(OC(=O)C(O)(/C=C\CC)C2CCCC2)CC1` (configuration not stated) was tested. Which TGI [1] did it give?
A: The TGI was > 100 µM.

Q: And the TGI [2]?
A: Its TGI is > 100 µM.

Q: And the TGI [3]?
A: Its TGI is > 100 µM.

Q: And the TGI [4]?
A: Its TGI is > 100 µM.

Q: And the TGI [5]?
A: The TGI was > 100 µM.

Q: And the TGI [6]?
A: Its TGI is > 100 µM.

Q: What about the TGI [7] of the same compound?
A: The TGI was > 100 µM.

Q: What about the TGI [8] of the same compound?
A: Its TGI is > 100 µM.

Q: And the TGI [9]?
A: Its TGI is > 100 µM.

Q: What about the TGI [10] of the same compound?
A: The TGI was > 100 µM.

Q: What about the TGI [11] of the same compound?
A: Its TGI is > 100 µM.

Q: What about the TGI [12] of the same compound?
A: Its TGI is > 100 µM.

Q: What about the TGI [13] of the same compound?
A: Its TGI is > 100 µM.

Q: And the TGI [14]?
A: The TGI was > 100 µM.

Q: What about the TGI [15] of the same compound?
A: The TGI was > 100 µM.

Q: What about the TGI [16] of the same compound?
A: Its TGI is > 100 µM.

Q: What about the TGI [17] of the same compound?
A: The TGI was > 100 µM.

Q: And the TGI [18]?
A: Its TGI is > 100 µM.

Q: And the TGI [19]?
A: Its TGI is > 100 µM.

Q: And the TGI [20]?
A: Its TGI is > 100 µM.

Q: And the TGI [21]?
A: Its TGI is > 100 µM.

Q: And the TGI [22]?
A: Its TGI is > 100 µM.

Q: And the TGI [23]?
A: The TGI was > 100 µM.

Q: What about the TGI [24] of the same compound?
A: Its TGI is > 100 µM.

Q: And the TGI [25]?
A: The TGI was > 100 µM.

Q: And the TGI [26]?
A: Its TGI is > 100 µM.

Q: What about the TGI [27] of the same compound?
A: Its TGI is > 100 µM.

Q: And the TGI [28]?
A: The TGI was > 100 µM.

Q: What about the TGI [29] of the same compound?
A: The TGI was > 100 µM.

Q: And the TGI [30]?
A: Its TGI is > 100 µM.

Q: And the TGI [31]?
A: Its TGI is > 100 µM.

Q: What about the TGI [32] of the same compound?
A: The TGI was > 100 µM.

Q: And the TGI [33]?
A: The TGI was > 100 µM.

Q: What about the TGI [34] of the same compound?
A: Its TGI is > 100 µM.

Q: What about the TGI [35] of the same compound?
A: Its TGI is > 100 µM.

Q: And the TGI [36]?
A: The TGI was > 100 µM.

Q: What about the TGI [37] of the same compound?
A: The TGI was > 100 µM.

Q: And the TGI [38]?
A: Its TGI is > 100 µM.

Q: And the TGI [39]?
A: The TGI was > 100 µM.

Q: And the TGI [40]?
A: Its TGI is > 100 µM.

Q: And the TGI [41]?
A: Its TGI is > 100 µM.

Q: What about the TGI [42] of the same compound?
A: Its TGI is > 100 µM.

Q: And the TGI [43]?
A: The TGI was > 100 µM.

Q: What about the TGI [44] of the same compound?
A: The TGI was > 100 µM.

Q: What about the TGI [45] of the same compound?
A: Its TGI is > 100 µM.

Q: And the TGI [46]?
A: Its TGI is > 100 µM.

Q: And the TGI [47]?
A: Its TGI is > 100 µM.

Q: What about the TGI [48] of the same compound?
A: Its TGI is > 100 µM.

Q: And the TGI [49]?
A: The TGI was > 100 µM.

Q: And the TGI [50]?
A: Its TGI is > 100 µM.

Q: What about the TGI [51] of the same compound?
A: The TGI was > 100 µM.

Q: And the TGI [52]?
A: The TGI was > 100 µM.

Q: And the TGI [53]?
A: The TGI was > 100 µM.

Q: And the TGI [54]?
A: The TGI was > 100 µM.

Q: What does the source list for `CCOC(=O)C(Cc1ccc2c(c1)CCC2)(Cc1ccc2c(c1)CCC2)C(=O)OCC`?
A: TGI [1]: 78.4 µM; TGI [55]: > 100 µM; TGI [2]: > 100 µM; TGI [3]: > 100 µM; TGI [4]: > 100 µM; TGI [5]: > 100 µM; TGI [7]: > 100 µM; TGI [8]: > 100 µM; TGI [9]: > 100 µM; TGI [11]: > 100 µM; TGI [12]: > 100 µM; TGI [13]: > 100 µM; TGI [14]: > 100 µM; TGI [15]: > 100 µM; TGI [16]: > 100 µM; TGI [17]: > 100 µM; TGI [18]: > 100 µM; TGI [20]: > 100 µM; TGI [21]: > 100 µM; TGI [22]: > 100 µM; TGI [23]: > 100 µM; TGI [24]: > 100 µM; TGI [25]: > 100 µM; TGI [56]: > 100 µM; TGI [26]: > 100 µM; TGI [27]: > 100 µM; TGI [28]: > 100 µM; TGI [29]: > 100 µM; TGI [30]: > 100 µM; TGI [31]: > 100 µM; TGI [32]: 89.9 µM; TGI [34]: > 100 µM; TGI [35]: > 100 µM; TGI [36]: > 100 µM; TGI [37]: > 100 µM; TGI [38]: > 100 µM; TGI [39]: > 100 µM; TGI [40]: 89.2 µM; TGI [42]: > 100 µM; TGI [43]: > 100 µM; TGI [44]: > 100 µM; TGI [45]: > 100 µM; TGI [46]: > 100 µM; TGI [47]: > 100 µM; TGI [48]: > 100 µM; TGI [57]: > 100 µM; TGI [49]: > 100 µM; TGI [58]: 55.1 µM; TGI [50]: > 100 µM; TGI [51]: > 100 µM; TGI [52]: > 100 µM; TGI [53]: > 100 µM; TGI [54]: > 100 µM
